Residues, ends and D or L forms follow the SMILES beside them. *: point of attachment. X1 = C[C@@H](CN*)N(C)C
Format: physicochemical
Procedure: The HPLC-purified products were analyzed by high-resolution mass spectrometry and tandem mass spectrometry (HR-MS/MS). […] Considering the predicted functions of genes encoded by the mpa BGC, we proposed that Thr underwent conversion to Dmp. To evaluate this hypothesis, a sufficient amount of 1 was accumulated for structure determination, due to its higher post-purification yield than 2 and 3. […] NMR analyses (^1H, ^13C, ^1H-^1H COSY, ^1H-^13C HSQC and ^1H-^13C HMBC) were then conducted in HFIP-d2 and a substructure corresponding to Dmp was deduced.

CC[C@H](C)[C@H](NC(=O)CNC(=O)[C@@H](NC(=O)[C@H](CC(C)C)NC(=O)[C@@H](NC(=O)[C@H](CC(C)C)NC(=O)[C@H](C)NC(=O)CNC(=O)[C@@H](NC(=O)[C@@H](NC(=O)CNC(=O)[C@H](CCC(N)=O)NC(=O)[C@H](Cc1ccc(O)cc1)NC(=O)[C@H](Cc1ccccc1)NC(=O)[C@H](CO)NC(=O)[C@H](CC(=O)O)NC(=O)[C@H](Cc1c[nH]c2ccccc12)NC(=O)[C@@H](N)CO)C(C)C)[C@@H](C)CC)C(C)C)[C@@H](C)CC)C(=O)NCC(=O)N[C@@H](C)C(=O)N[C@@H](C)C(=O)N[C@@H](C)C(=O)N[C@@H](C)C(=O)NC[C@H](C)N(C)C [compound 1] (H-SWDSFYQGVIGALVLIGIGAAAA-X1)
solubility in commonly used NMR solvents: only sparingly soluble
solubility in hexafluoroisopropanol (HFIP): highly soluble

Reference: paper PMC10036551, “Genome mining unveils a class of ribosomal peptides with two amino termini” (Nature Communications, 2023)
